Assays:
ADAM17 = target: T1, ADAM17 (Homo sapiens, UniProt P78536); test: ADAM17 inhibition experiment (fluorescent synthetic substrate); assay type: biochemical
T1 construct: made in house; host or cells: mammalian cells or insect cells
Experimental: The cDNA was incorporated into an expression vector. Then, this vector was transfected into mammalian cells or insect cells, and ADAM17 was expressed and obtained.
Next, the activity of ADAM17 was measured, as follows in the presence or absence of the test substances, in which obtained ADAM17 was used as an enzyme, and a fluorescent synthetic substrate Nma (N-methyl anthranilate)-[…]Dnp (dinitrophenyl)-D-Arg-NH2 containing an ADAM17-cleavage sequence of membrane-bound TNF was used as a substrate.
Specifically, 90 μL of 14 units of an enzyme solution (1 unit is defined as an amount of enzyme degrading […] of the substrate in 1 minute at 25° C.) prepared with Assay Buffer A (50 mmol/L Tris-HCl buffer (pH 7.5) containing 200 mmol/L sodium chloride, 5 mmol/L calcium chloride, 10 μmol/L zinc sulfate, and 2 mg/mL bovine serum albumin) was mixed with 90 μL of the fluorescent synthetic substrate adjusted to be 20 μmol/L with Assay Buffer B (50 mmol/L Tris-HCl buffer (pH 7.5) containing 200 mmol/L sodium chloride, 5 mmol/L calcium chloride, 10 μmol/L zinc sulfate, and 0.05% PLURONIC F-68), and allowed for reaction at 37° C. for 1.5 hours. Thereafter, the enzyme activity was determined by measurement using a fluorometer (Fluoroskan Ascent) under conditions of an excitation wavelength of 355 nm and a measurement wavelength of 460 nm. Then, an inhibition rate was obtained based on the enzyme activities in the presence and absence of the test compounds, and the 50% inhibitory concentration (IC50) was calculated.
A disintegrin and metalloproteinase 17 (ADAM17, TACE) (used was one prepared at Kaken Pharmaceutical Co., Ltd. by employing the genetic recombination in the same way as in Test Example 3. Note that, the same as in Test Example 3, 1 unit is defined as an amount of enzyme degrading 1 pmol of substrate in 1 minute at 25° C.)
(§1) TACE substrate (the same as one used in Test Example 3): excitation wavelength at 355 nm, emission wavelength at 460 nm
(§2) The enzyme reaction was carried out using the enzymes and substrates. Specifically, if necessary, the enzyme was activated in advance with APMA (final concentration 1 mmol/L, p-aminophenylmercuric acetate, manufactured by Sigma-Aldrich Co., A9563) according to information from the manufacturer. Then, in a 96-well plate for fluorescence measurement, 90 μL of an enzyme solution prepared with Assay Buffer A (50 mmol/L Tris-HCl buffer (pH 7.5) containing 200 mmol/L sodium chloride, 5 mmol/L calcium chloride, 10 μmol/L zinc sulfate, and 2 mg/mL bovine serum albumin) was mixed with 90 μL of the substrate adjusted to be 20 μmol/L with Assay Buffer B (50 mmol/L Tris-HCl buffer (pH 7.5) containing 200 mmol/L sodium chloride, 5 mmol/L calcium chloride, 10 μmol/L zinc sulfate, and 0.05% PLURONIC F-68), and incubated for reaction at 25° C. or 37° C. for several hours. Moreover, the fluorescence intensities before and after the reaction were measured using a fluorometer to determine the enzyme activity. An inhibition rate was obtained based on the enzyme activities in the presence and absence of the test substances, and the 50% inhibitory concentration (IC50) was calculated.

[1] = target: T2, Matrix metalloproteinase 3 (MMP-3) (Homo sapiens, UniProt P08254); test: Enzyme inhibition experiment, MMP-3; assay type: biochemical; settings: 3168 substrate, 37° C., 4 hours
T2 construct: purchased Calbiochem 444217
T2 sequence (P08254 100-272 limits assumed): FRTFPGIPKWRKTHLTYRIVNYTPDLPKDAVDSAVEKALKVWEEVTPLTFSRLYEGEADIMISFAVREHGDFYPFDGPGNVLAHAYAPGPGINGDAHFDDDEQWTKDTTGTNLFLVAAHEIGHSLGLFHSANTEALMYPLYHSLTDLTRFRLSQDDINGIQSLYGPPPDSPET
Experimental: Matrix metalloproteinase 3 (MMP-3) (manufactured by Calbiochem, product number: 444217)
(§3) 3168 substrate (MOCAc-Arg-Pro-Lys-Pro-Val-Glu-Nva-Trp-Arg-Lys(Dnp)-NH2, manufactured by Peptide Institute, Inc.): excitation wavelength at 320 nm, emission wavelength at 405 nm, and 3163 substrate (MOCAc-Pro-Leu-Gly-Leu-A2pr(Dnp)-Ala-Arg-NH2, manufactured by Peptide Institute, Inc.): excitation wavelength at 320 nm, emission wavelength at 405 nm.
as §2

[2] = target: T3, Matrix metalloproteinase 13 (MMP-13) (Homo sapiens, UniProt P45452); test: Enzyme inhibition experiment, MMP-13; assay type: biochemical; settings: 444221 substrate, 37° C., 4 hours
T3 construct: purchased Chemicon CC068
Experimental: Matrix metalloproteinase 13 (MMP-13) (manufactured by Chemicon, product number: CC068)
as §2, with “activity.” for “activity. An inhibition rate was obtained based on the enzyme activities in the presence and absence of the test substances, and the 50% inhibitory concentration (IC50) was calculated.”

[3] = target: T4, Matrix metalloproteinase 14 (MMP-14) (Homo sapiens, UniProt P50281); test: Enzyme inhibition experiment, MMP-14; assay type: biochemical; settings: 444221 substrate, 37° C., 5 hours
T4 construct: purchased Calbiochem 475935
Experimental: Matrix metalloproteinase 14 (MMP-14) (manufactured by Calbiochem, product number: 475935)
444221 substrate (DNP-Pro-Cha-Gly-Cys(Me)-His-Ala-Lys(Nma)-NH2, custom synthesis): excitation wavelength at 355 nm, emission wavelength at 460 nm
as §2

[4] = target: T5, Matrix metalloproteinase 17 (MMP-17) (Homo sapiens, UniProt Q9ULZ9); test: Enzyme inhibition experiment, MMP-17; assay type: biochemical; settings: 3163 substrate, 25° C., 5 hours
T5 construct: purchased Calbiochem 475940
T5 sequence (Q9ULZ9 126-298 limits assumed): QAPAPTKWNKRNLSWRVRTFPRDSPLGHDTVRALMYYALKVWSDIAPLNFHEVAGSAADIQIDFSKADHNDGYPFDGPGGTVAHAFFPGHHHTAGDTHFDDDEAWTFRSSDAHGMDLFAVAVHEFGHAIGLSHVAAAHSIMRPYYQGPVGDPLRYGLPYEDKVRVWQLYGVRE
Experimental: Matrix metalloproteinase 17 (MMP-17) (manufactured by Calbiochem, product number: 475940)
as §3, §2

[5] = target: T6, A disintegrin and metalloproteinase 10 (ADAM10) (Homo sapiens, UniProt O14672); test: Enzyme inhibition experiment, ADAM10; assay type: biochemical; settings: TACE substrate, 25° C., 5 hours
T6 construct: purchased Funakoshi Co., Ltd. 936-AD-020
T6 sequence (O14672 214-672 limits assumed): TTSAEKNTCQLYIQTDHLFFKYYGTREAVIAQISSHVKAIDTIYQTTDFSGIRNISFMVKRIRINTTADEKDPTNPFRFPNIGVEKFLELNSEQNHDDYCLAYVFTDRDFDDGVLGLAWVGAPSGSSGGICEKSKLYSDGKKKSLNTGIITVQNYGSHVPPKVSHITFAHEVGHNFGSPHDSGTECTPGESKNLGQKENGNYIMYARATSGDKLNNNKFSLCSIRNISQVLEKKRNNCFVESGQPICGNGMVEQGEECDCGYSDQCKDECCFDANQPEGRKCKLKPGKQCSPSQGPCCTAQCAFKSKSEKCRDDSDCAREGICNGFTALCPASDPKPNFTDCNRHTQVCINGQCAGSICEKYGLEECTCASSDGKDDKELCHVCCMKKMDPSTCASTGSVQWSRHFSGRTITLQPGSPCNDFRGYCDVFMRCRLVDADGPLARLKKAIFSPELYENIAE
Experimental: A disintegrin and metalloproteinase 10 (ADAM10) (manufactured by Funakoshi Co., Ltd., product code: 936-AD-020) and
as §1, §2

[6] = tested on: ES cell-derived platelets (ADAM17-mediated GPIbα shedding); test: Function-maintaining effect on ES cell-derived platelets in culture system (flow cytometry CD41/CD42b, platelet count)
Experimental: As human ES cells (hES cells), a KhES cell line (KhES-3) established by and provided from Institute for Frontier Medical Sciences, Kyoto University was used.
The human ES cells or the human iPS cells were seeded on the feeder cells such that the cell count was 5×10^4 to 1×10^5/10-cm dish. The cells were cultured in Iscove's Modified Dulbecco's Medium (IMDM, manufactured by Invitrogen Corp/GIBCO) supplemented with 15% FBS (product name: CELLect™ GOLD, manufactured by ICN Biomedicals Inc.), 2 mM L-glut amine (manufactured by Invitrogen Corp.), ITS supplement (10 μg/ml insulin, 5.5 mg/ml human transferrin, 5 ng/ml sodium selenite) (manufactured by Sigma-Aldrich Co.), 50 μg/ml ascorbic acid (Sigma-Aldrich Co.), 0.45 mM α-monothioglycerol (MTG, manufactured by Sigma-Aldrich Co.), and 20 ng/ml vascular endothelial growth factor (VEGF, manufactured by R&D Systems, Inc.). Further, this culturing was carried out at 37° C. in 5% CO2 and 21% O2 (atmospheric oxygen) using a CO2 incubator (product name: HERA CELL 150i, manufactured by Thermo Fisher Scientific K. K.). Then, the medium was replaced every 3 days, and the culturing was continued under the conditions until Day 15 when a large number of sac structures (sac-like structures) containing hematopoietic progenitor cells therein were observed.
Next, after detached from the dish, the sac structures were disrupted and suspended in a 3% FBS-containing phosphate buffer solution (PBS). Then, the suspension was passed through a 40-μm cell strainer (manufactured by BD). The solution thus passed through was centrifuged at 440×g for 10 minutes to collect hematopoietic progenitor cells, and the cells was counted. The hematopoietic progenitor cells were seeded on 10T1/2 cells newly prepared in a 6-well plate (6×10^5 cells/plate) exposed to 50-Gy radiation such that the number of the hematopoietic progenitor cells was 2 to 3×10^4/well. The hematopoietic progenitor cells were further cultured for 8 days in IMDM (manufactured by Invitrogen Corp/GIBCO) supplemented with 15% FBS (product name: CELLect™ GOLD, manufactured by ICN Biomedicals Inc.), 2 mM L-glutamine (manufactured by Invitrogen Corp.), ITS supplement (10 μg/ml insulin, 5.5 mg/ml transferrin, 5 ng/ml sodium selenite) (manufactured by Sigma-Aldrich Co.), 50 μg/ml ascorbic acid (manufactured by Sigma-Aldrich Co.), 0.45 mM MTG (manufactured by Sigma-Aldrich Co.), 100 ng/ml human thrombopoietin (human TPO, manufactured by PeproTech, Inc.), 50 ng/ml human stem cell factor (SCF, manufactured by PeproTech, Inc.), and 25 U/ml heparin. Thereby, megakaryocytes/platelets were induced.
Subsequently, the induced megakaryocytes/platelets were collected with an anticoagulant solution (Acid Citrate Dextrose, ACD), followed by centrifugation at 900 rpm for 10 minutes without a break. The supernatant obtained by the centrifugation was further centrifuged at 1500 rpm for 10 minutes without a break to remove the supernatant. Thereafter, the numbers of megakaryocytes and platelets in the precipitate thus obtained were analyzed by flow cytometry using antibodies for staining.
Note that, in the flow cytometry, FACS Aria manufactured by Becton, Dickinson and Company was used. As the antibodies used to stain the megakaryocytes and the platelets, used were a Phycoerythrin (PE)-modified anti-human CD42a (GPIX) antibody, a PE-modified anti-human CD42b (GPIbα) antibody, and an allophycocyanin (APC)-labelled anti-CD41a (integrin αIIbbeta3 complex, HIP8 clone) antibody (manufactured by BD Bioscience). Additionally, in order to accurately measure the absolute numbers of the megakaryocytes and the platelets, the cells were stained with these antibodies, and the analysis was conducted by flow cytometry using TruCount beads (manufactured by BD Bioscience), also.

T1 sequence (P78536 215-824): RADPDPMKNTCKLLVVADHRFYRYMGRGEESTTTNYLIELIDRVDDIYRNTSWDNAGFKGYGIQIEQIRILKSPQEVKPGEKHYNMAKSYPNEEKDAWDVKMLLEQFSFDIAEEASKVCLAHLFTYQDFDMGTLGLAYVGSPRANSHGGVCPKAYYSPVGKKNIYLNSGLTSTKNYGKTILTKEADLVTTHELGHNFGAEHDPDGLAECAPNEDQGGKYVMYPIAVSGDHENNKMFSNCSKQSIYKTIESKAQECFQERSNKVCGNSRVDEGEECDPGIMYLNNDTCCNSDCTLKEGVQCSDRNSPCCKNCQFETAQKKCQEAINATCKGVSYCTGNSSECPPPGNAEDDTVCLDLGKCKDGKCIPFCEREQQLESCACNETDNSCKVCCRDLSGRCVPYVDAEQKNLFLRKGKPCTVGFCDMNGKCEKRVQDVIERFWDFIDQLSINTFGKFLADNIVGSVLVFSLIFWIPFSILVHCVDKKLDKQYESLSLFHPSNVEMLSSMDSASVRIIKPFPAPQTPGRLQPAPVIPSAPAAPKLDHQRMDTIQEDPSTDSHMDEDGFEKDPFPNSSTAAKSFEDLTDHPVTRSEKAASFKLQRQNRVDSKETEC

For `CNC(=O)[C@H](Cc1c[nH]c2ccccc12)NC(=O)[C@@H](CC(=O)NO)CC(C)C` [GM6001, reference compound], the IC50 (ADAM17) was 310 nM, the “inhibitory activity on ADAM17 enzyme (in words)” value (ADAM17) was “weak” and the “specificity to ADAM17 in comparison with metalloproteinases other than ADAM17” value (ADAM17; from Table 3) was “non-specifically and strongly inhibited metalloproteinases”. The IC50 [1] was 32 nM, the IC50 [2] was 0.26 nM and the IC50 [3] was 1.6 nM. The IC50 [4] was 3 nM, the “IC50 ADAM10” value [5] was 410 nM and the cytotoxicity ([6]; Test Example 5, 50 μM, 8-day addition) was “had cytotoxicity”. For the same compound, the “number of platelets obtained” value ([6]; Test Example 5, 8-day addition, 50 μM GM6001 vs 5 μM S-45282) was “fewer platelets than 5 μM S-45282”, the “inhibition of ADAM17-mediated GPIbα shedding (CD42b(+) percentage)” value ([6]; Test Example 5, added for 2 days or 8 days, GM6001 50 μM, S-45282 5 μM or 50 μM) was “inhibit ADAM17-mediated GPIbα shedding” and the “number of platelets obtained” value ([6]; Test Example 5, added for 2 days, 50 μM GM6001, 5 μM S-45282) was “approximately the same”. The “inhibition of ADAM17-mediated GPIbα shedding” value ([6]; Test Example 6, 8 days, S-45457 5 μM or 50 μM, GM6001 50 μM) was “inhibits ADAM17-mediated GPIbα shedding”.

Source: patent US9034922B2, “Composition for maintaining function of platelets” (THE UNIVERSITY OF TOKYO, priority 2010, dated 2015)
